Structures can show the parent of a compound that is named as a salt. Where two headings read alike, the source gives them in different places.
Tests used:
Vpu protein = Vpu protein (Human immunodeficiency virus type 1 group M subtype B, UniProt P05919); conditions: halo of growth score between zero and six; XL1-blue E. coli with pPL-Vpu, no adenine, 37° C.
229E-CoV E-protein = 229E-CoV E-protein (Human coronavirus 229E, UniProt P19741); assay: Bacterial bio-assay for 229E-CoV E-protein; conditions: halo of growth score; E. coli expressing E protein at 37° C.
MHV (strain MHV-A59) = conditions: L929 cells
SARS-CoV E protein = SARS-CoV E protein (Severe acute respiratory syndrome coronavirus, UniProt P59637); format: cell-based

| SMILES | Vpu Inhibition (score/# of times tested) (Vpu protein) | 229E E protein Inhibition (score) (229E-CoV E-protein) | Percent reduction in Plaque number/# experiments (MHV (strain MHV-A59); 1 uM) | Percent reduction in Plaque number/# experiments (MHV (strain MHV-A59); 10 uM) | Percent reduction in Plaque number/# experiments (MHV (strain MHV-A59); 20 uM) | SARS E protein Inhibition (score/# of times tested) (SARS-CoV E protein) | Toxic (noted in place of plaque reduction) (MHV (strain MHV-A59); 20 uM) |
| --- | --- | --- | --- | --- | --- | --- | --- |
| Cl.N=C(N)NC(=O)/C=C/c1ccccc1 [cinnamoylguanidine hydrochloride] | 0.6/2 score | 0.5 | 56/1% | 72/2% | 85/1% | 2.50/1 score | – |
| NC(N)=NC(=O)c1cccc2ccccc12 [1-napthoylguanidine] | 0.3/2 score | 1.9 | 2/3% | 62/3% | 71/3% | 1.32/3 score | – |
| CCOc1ccccc1/C=C/C(=O)NC(=N)N [2-ethoxycinnamoylguanidine] | 2.25/2 score | 0.6 | 48/2% | 85/3% | 93/2% | 2.57/1 score | – |
| N=C(N)NC(=O)/C=C/c1ccccc1F [2-fluorocinnamoylguanidine] | 2.1/2 score | 0.4 | – | 73/1% | 76/1% | 0.63/1 score | – |
| CC(C)(C)Nc1nc(N)c(C(=O)N=C(N)N)nc1Cl [5-tert-butylamino-amiloride] | 0.2/7 score | 0.3 | 34/4% | 84/4% | 89/4% | 2.01/2 score | – |
| N=C(N)NC(=O)/C=C/c1ccc(C(F)(F)F)cc1 [4-(trifluoromethyl)cinnamoylguanidine] | 2.2/2 score | 2.3 | 46/3% | 95/3% | 97/3% | 2.75/1 score | – |
| N=C(N)NC(=O)/C=C/c1cccc([N+](=O)[O-])c1 [(3-Nitrocinnamoyl)guanidine] | 0.9/1 score | 0.1 | 42/3% | 77/3% | 95/2% | 1.51/2 score | – |
| NC(N)=NC(=O)c1nc(Cl)c(Nc2ccc(F)cc2)nc1N [5-(4-fluorophenyl)amiloride] | 0.4/6 score | 1.8 | 16/1% | 25/1% | 4/1% | 1.38/1 score | – |
| Cc1ccc(C)c(/C=C/C(=O)NC(=N)N)c1 [2,5-dimethylcinnamoylguanidine] | 2.69/2 score | 1.6 | 39/3% | 91/3% | 95/3% | 3.63/1 score | – |
| N=C(N)NC(=O)/C=C/c1ccccc1C1CCCCC1 [2-cyclohexylcinnamoylguanidine] | 0.8/2 score | 0.8 | 16/1% | 74/2% | 100/1% | 1.83/1 score | – |
| COc1cccc(/C=C/C(=O)NC(=N)N)c1 [(3-Methoxycinnamoyl)guanidine] | 1.52/6 score | 1.4 | 37/3% | 87/2% | 92/2% | 0.63/2 score | – |
| Cc1ccccc1/C=C/C(=O)NC(=N)N [2-methylcinnamoylguanidine] | 3.1/2 score | 0.5 | 20/1% | 82/1% | 91/1% | 1.00/1 score | – |
| N=C(N)NC(=O)/C=C/c1ccc(F)cc1 [4-fluorocinnamoylguanidine] | 1.1/2 score | 0.4 | 20/1% | 83/1% | 86/1% | 1.25/1 score | – |
| C/C(=C\c1ccccc1)C(=O)NC(=N)N [(a-Methylcinnamoyl)guanidine, (α-Methylcinnamoyl)guanidine] | 0.6/2 score | 1.0 | 51/2% | 75/3% | 81/2% | 0.50/1 score | – |
| N=C(N)NC(=O)/C=C/c1cccc(F)c1 [3-fluorocinnamoylguanidine] | 1.9/2 score | 0.5 | 31/1% | 93/2% | 100/1% | 1.50/1 score | – |
| NC(N)=NC(=O)c1ccc(Oc2ccccc2)cc1 [(4-Phenoxybenzoyl)guanidine] | 0.81/2 score | 2.3 | 32/1% | 65/1% | 73/1% | 0.57/2 score | – |
| Cc1cc(C)c(C)c(/C=C/C(=O)NC(=N)N)c1C [2,3,5,6,-tetramethylcinnamoylguanidine] | 1.6/2 score | 0.3 | 0/1% | 68/2% | – | 1.00/1 score | – |
| CCc1ccccc1/C=C/C(=O)NC(=N)N [2-ethylcinnamoylguanidine] | 2.75/2 score | 0.8 | 34/1% | 81/2% | 96/1% | 1.50/1 score | – |
| NC(N)=NC(=O)c1ccc2ccccc2c1 [2-napthoylguanidine] | 2.7/11 score | 0.3 | 34/2% | 36/2% | 67/2% | 1.38/2 score | – |
| N=C(N)NC(=O)/C=C/c1ccc(O)cc1 [(4-Hydroxycinnamoyl)guanidine] | 1.1/2 score | 0.6 | 13/1% | 15/1% | 19/1% | 1.63/2 score | – |
| N=C(N)NC(=O)/C=C/c1ccccc1C(F)(F)F [2-(trifluoromethyl)cinnamoylguanidine] | 2.4/2 score | 1.5 | 13/1% | 15/1% | 19/1% | 1.38/1 score | – |
| CN(C)c1nc(N)c(C(=O)N=C(N)N)nc1Cl [5-(N,N-Dimethyl)amiloride hydrochloride] | 0.1/2 score | 1.3 | 17/4% | 7/4% | 42/4% | 1.38/2 score | – |
| N=C(N)NC(=O)/C=C/C=C/c1cccc(Br)c1 [5-(3′-bromophenyl)penta-2,4-dienoylguanidine] | 2.5/2 score | 0.3 | 66/1% | 99/2% | – | 0.5/1 score | – |
| N=C(N)NC(=O)/C=C/c1cccc(F)c1F [2,3-difluorocinnamoylguanidine] | 1.56/2 score | 3.3 | 64/2% | 92/3% | – | 4.50/1 score | Toxic |
| CCOc1ccc(/C=C/C(=O)NC(=N)N)cc1 [4-ethoxycinnamoylguanidine] | 0.69/2 score | 0.1 | 40/1% | 92/1% | 96/1% | 2.48/2 score | – |

Source: patent US11192863B2, “Antiviral compounds and methods” (Biotron Limited, priority 2003, dated 2021)
